{
  "source": "patent EP0714404B1",
  "about": "“ANTI-INFLAMMATORY PEPTIDES” (CURATIVE TECHNOLOGIES, INC., priority 1993, dated 1995)",
  "assay_type_in_all_cases": "in vivo, mice",
  "key": {"[1]": {"test_system": "Arachidonic Acid Induced Inflammation", "details": "mouse, in vivo", "method": "(§1) The anti-inflammatory properties of CT-112 (SEQ. ID NO: 1) were assessed using a standardized assay for anti-inflammatory activity, i.e., the mouse ear model in which arachidonic acid (AA) is used to induce an inflammatory reaction (Young et al., 1984, J. Invest. Dermatol. 82:367-371; Doherty, et al., 1988, J. Invest. Dermatol. 91:298-302).\n(§2) Female mice (C57BL/6UAF, Charles River Breeding Laboratories, approximately 15-18 g) were obtained and acclimated for 2 weeks prior to use. The animals were approximately 14 weeks old at the start of the study.\n(§3) To prepare minipumps for implantation, CT-112 (SEQ. ID NO: 1) was dissolved in PBS. The material was loaded into Alzet minipumps set to deliver 0.05 (5 animals), 0.1 (10 animals), 1 (10 animals), or 2.5 (5 animals) mg of CT-112 (SEQ. ID NO: 1) per animal per day. Minipumps for implantation into control animals contained only PBS. As a positive control, one set of 10 mice received 100 mg/kg of phenidone, a potent 5-lipoxygenase inhibitor which acts as an anti-inflammatory agent, 15 min prior to challenge with AA.\n(§4) For subcutaneous implantation of minipumps, animals were anesthetized with Ketamine/Xylazine. The Ketamine (Aveco Lot #440140) was injected at 80 mg/kg and the Xylazine (Rugby Laboratories Lot #26040-B) at 16 mg/kg and the Alzet pumps were implanted subcutaneously in the dorsothoracic area. Animals were allowed to recover and then housed and given food and water ad libitum for 5 days.\n(§5) On the sixth day following pump implantation, 0.01 ml of AA was applied to the inner and outer surfaces of the right ear by means of an automatic microliter pipette. One hr following AA application, the mice were sacrificed and ear thickness was measured with a Mitutoyo No. 7300 Gauge Caliper. The left ears were also measured as an internal control.\n(§6) Mice were implanted with Alzet mini-pumps set to deliver 60 mg/kg/day for either 7, 3, or 1 days. A separate group of 5 mice received 3 intraperitoneal injections of CT-112 (60 mg/kg/injection) at 24, 1 and 0.25 hr prior to AA challenge. CT-112 (SEQ. ID NO: 1) was prepared for injection by dissolving the compound in Dulbecco's PBS to give a final CT-112 (SEQ. ID NO: 1) concentration of 5 mg/ml. The control mice were implanted with Alzet minipumps that delivered PBS for 7 days. The AA challenge was the same as described supra in Example 7.\n(§7) Administration of CT-112 (SEQ. ID NO: 1) (60 mg/kg/injection) via multiple intraperitoneal injections was performed at the following times prior to AA challenge: • a) 6, 3, 1 and 0.25 hr; • b) 3, 1 and 0.25 hr; or • c) 1 and 0.25 hr.\n(§8) In addition, the effect of a single administration of CT-112 (SEQ. ID NO: 1) (60 mg/kg) by intraperitoneal injection was performed at either 1 or 3 hr prior to AA challenge. Control mice had Alzet minipumps implanted to deliver PBS for 7 days prior to AA challenge. The AA challenge was the same as described supra in Example 7. The results of the multiple dosing regimens and the 1 hr and 3 hr single dosing regimens were compared to the anti-inflammatory activity of CT-112 (SEQ. ID NO: 1) delivered via Alzet minipump set to deliver 60 mg/kg/day for 7 days using 5 animals per treatment.\nIn a separate experiment, the effect of multiple intraperitoneal injections of CT-112 (SEQ. ID NO: 1) at either 6, 3, 1 and 0.25 hr, or 16, 3, 1 and 0.25 hr prior to AA challenge was assessed. The results of both multi-dosing regimens were compared to both phenidone (100 mg/kg administered 15 min prior to AA challenge) and CT-112 (SEQ. ID NO: 1) administered via Alzet mini-pump (60 mg/kg/day for 7 days). For this latter study, the number of animals receiving the single injection of CT-112 (SEQ. ID NO: 1) was increased from 5 to 10.\nAdministration to mice of CT-112 (SEQ. ID NO: 1) (60 mg/kg/injection) via multiple subcutaneous injections prior to AA challenge was performed at: • a) 6, 3, 1 and 0.25 hr; • b) 3, 1 and 0.25 hr; or • c) 1 and 0.25 hr. […]"}, "[2]": {"test_system": "Arachidonic Acid Induced Inflammation", "experiment": "mouse ear model, arachidonic acid (AA) induced inflammation, ear thickness", "method": "as §1, §2, §3, §4, §5, §6, §7, §8\nIn a separate experiment, the effect of multiple intraperitoneal injections of CT-112 (SEQ. ID NO: 1) at either 6, 3, 1 and 0.25 hr, or 16, 3, 1 and 0.25 hr prior to AA challenge was assessed. […]"}, "[3]": {"test_system": "Arachidonic Acid Induced Myeloperoxidase Activity in Mouse Ear", "experiment": "myeloperoxidase activity in AA-treated mouse ear tissue (marker for PMNs)", "set-up": "dose or concentration left out as unconfirmed", "details": "Phenidone 100", "method": "Myeloperoxidase activity in ear tissue was measured as a marker for the presence or absence of polymorphonuclear leukocytes (PMNs) (Barone et al., 1991, J. Neurosci. Res. 29:336-345). After measurement of ear thickness, ears were dissected from the mice and homogenized in 50mM Tris-HCL, pH 7.4 at 4°C to give a 10% (w/v) homogenate. Aliquots of the homogenate were used to determine the amount of myeloperoxidase activity present in the tissue using o-dianisidine (Sigma Chem Co., St. Louis MO) and hydrogen peroxide as substrates and monitoring chromophore generation at 460 nm (Barone et al., 1991, J. Neurosci. Res. 29:336-345)."}, "[4]": {"test_system": "Delayed Type Hypersensitivity", "experiment": "mouse model of delayed-type hypersensitivity induced by DNCB", "details": "Prednisone ip 25 mg/kg, 2 hr prior to challenge", "method": "CT-112 (SEQ. ID NO: 1) was tested for its ability to modulate the immune response in a mouse model of delayed hypersensitivity (Filipp et al., 1984, Allergy, 39: 499-507; Diezel et al., 1989 J. Invest. Dermatol. 93:322-326). The mice used in this study were 8-wk old hairless females (Jackson Laboratories). The mice were sensitized to a contact allergen (1-chloro-2,4-dinitrobenzene, DNCB) by painting the dorsothoracic region twice daily for 5 consecutive days with 50 µl of 0.5% DNCB in 75% acetone:25% vegetable oil. The animals were allowed to rest for 24 hr prior to challenge with DNCB. On the sixth day after initiation of the sensitization treatments, the animals were challenged with 50 µl of DNCB solution applied to the left ear. After 24 hrs, the ear thickness was determined and compared to the unchallenged ear.\nThe treatment groups were as follows: • a) PBS control; • b) Prednisone (intraperitoneal injection of 25 mg/kg, 2 hr prior to challenge); • c) 7-day pump (60 mg CT-112/kg/24 hr); • d) CT-112 (intraperitoneal injections of 60 mg/kg/injection at 3, 1, and 0.25 hr prior to challenge and 3, 6 and 21 hr post-challenge); • e) DMSO control (topical application of 50 µl at 3, 1 and 0.25 hr prior to challenge; and • f) CT-112 in DMSO (20 mg/ml, topical application of 50 µl at 3, 1, and 0.25 hr prior to challenge and 3, 6 and 21 hr post-challenge)."}, "[5]": {"details": "Table V, Phenidone 100 mg/kg 15 min prior to AA"}},
  "note": "Where two headings read alike, the source gives them in different places. Residues, ends and D or L forms follow the SMILES beside them.",
  "data": [
    {"molecule": "CC(C)[C@H](NC(=O)[C@H](CCC(N)=O)NC(=O)[C@H](CO)NC(=O)[C@@H](NC(=O)[C@@H](N)[C@@H](C)O)[C@@H](C)O)C(=O)O", "note": "[CT-114, Thr-Thr-Ser-Gln-Val] (H-TTSQV-OH)", "values": [
      {"measurement": "% Inhibition of Inflammation", "setting": "[1]; 6 mg/kg/day", "result": 59.3, "unit": "%"},
      {"measurement": "% Inhibition of Inflammation", "setting": "[1]; 60 mg/kg/day", "result": 62.4, "unit": "%"}
    ]},
    {"molecule": "O=C1CCN(c2ccccc2)N1", "note": "[Phenidone]", "values": [
      {"measurement": "Ear Thickness", "setting": "[2]; Phenidone 100mg/kg, 15 min prior to AA, 1 hr after AA", "result": "0.01176 ± 0.0008 (10) in"},
      {"measurement": "% Inhibition of Inflammation", "setting": "[2]; Table III, Phenidone 100 mg/kg", "result": 88, "unit": "%"},
      {"measurement": "Thickness Difference (Left-Right)", "setting": "[2]; Table III, Phenidone 100 mg/kg", "result": "0.00073 ± 0.00153", "unit": "in"},
      {"measurement": "% Inhibition of Inflammation", "setting": "[2]; [5]", "result": 84.2, "unit": "%"},
      {"measurement": "Thickness Difference (Left-Right)", "setting": "[2]; [5]", "result": "0.00102 ± 0.00038(5) in"},
      {"measurement": "Myeloperoxidase Activity", "setting": "[3]", "result": "14.5 ± 8.6 µmole of chromophore formed/min"}
    ]},
    {"molecule": "C[C@]12C=CC(=O)C=C1CC[C@@H]1[C@@H]2C(=O)C[C@@]2(C)[C@H]1CC[C@]2(O)C(=O)CO", "note": "[Prednisone]", "values": [
      {"measurement": "% Inhibition of Inflammation", "setting": "[4]", "result": 96.7, "unit": "%"},
      {"measurement": "Thickness Difference (Left-Right)", "setting": "[4]; 24 hrs after DNCB", "result": "0.00014 ± 0.000446", "unit": "in"}
    ]}
  ]
}
